Results on one molecule are retold here after US20240299504A1, “COMPOSITIONS AND METHODS FOR TREATING ALZHEIMERS DISEASE” (priority 2023, published 2024).

For assay [1], the system named is primary cultured astrocytes from WT and 5×FAD pups. The assay can be described thus: PTH1-34 induced signaling in primary cultured astrocytes (Western blot). It counts as cell-based, mouse. Particulars: 100 ng/ml PTH1-34, time course. As for the experimental part: Total proteins from cortex, hippocampus, or cultured astrocytes were extracted using RIPA lysis buffer [50 mM Tris-HCl (pH7.5), 150 mM NaCl, 1 mM EDTA, 1% v/v NP-40, 0.1% SDS, 1% sodium deoxycholate supplemented with Protease Inhibitor Cocktail (Roche) and 1 mM PMSF] and analyzed by Western Blot. Lysates were cleared by centrifugation at 12,000 g for 15 min at 4° C. to remove debris and to obtain homogenates. Homogenates samples were resolved by SDS-PAGE (8˜15%) gels and then electroblotted onto nitrocellulose membranes (Cat #1620112, Bio-Rad Laboratories). Membranes were blocked with 5% BSA (w/v) in TBS-Tween (50 mM Tris, 150 mM NaCl, pH7.6 and 0.1% v/v Tween-20) for 1 h and then probed with indicated primary antibodies overnight in 4° C. Membranes were washed with TBST 4 times and incubated with HRP-conjugated secondary antibodies (1:5000 in TBST) at room temperature for 1 h. After washing with TBST 3 times, antibody reactivity was detected by the Enhanced Chemiluminescence (ECL) detection system (Amersham Biosciences). Band density of proteins was normalized in relation to loading control and analyzed using NIH ImageJ software. Primary anti-bodies used were as follows: IBA1 (ab178846, rabbit), p16 (ab51243, rabbit), p53 (ab131442, rabbit), and anti-beta Actin (ab8226, mouse) from Abcam (Cambridge, MA, USA); GFAP (12389, rabbit), p-CREB (Ser133) (9198S, rabbit), p-AKT(S473) (4060P, rabbit), AKT (9272S, rabbit) and GAPDH (97166S, mouse) from Cell Signaling (Danvers, MA, USA); PTH1R (PA5-77,689, rabbit) from Invitrogen (Carlsbad, CA, USA); p-ERK1/2 (sc-136521, mouse) and ERK1/2 (sc-514302, mouse) from Santa Cruz Biotechnology (Santa Cruz, CA, USA).
Astrocyte culture was performed according to the standard protocol with some modifications as described in previous literature. In brief, the cerebral cortex and hippocampus of postnatal day 3 (P3) female pups were dissected under a stereomicroscope and placed in ice-cold calcium- and magnesium-free HBSS (Hanks Balanced Salt Solution). […]
For orientation: A western blot detects proteins with antibodies after separation by electrophoresis.

The test system of a further assay is osteocalcin. The assay can be described thus: Serum osteocalcin ELISA (bone formation marker). It counts as in vivo, mouse. The following applies: 6-MO female 5×FAD vs control mice; 50 μg/Kg s.c. intermittent. How it is done:
(§1) Parathyroid hormone (human) was purchased from TOCRIS Bioscience (Cat #3011/1, Abingdon, United Kingdom). WT or 5×FAD mice (both male and female) were treated with PTH1-34 intermittently [once daily injection of hPTH1-34 (50 μg/Kg) or vehicle (0.9% sodium chloride) (as a control) by subcutaneous injection, starting at 2-MO, 5 days per week] as described previously. Mice were then subjected to behavioral tests and sacrificed for examinations of their bone and brain phenotypes at the indicated ages.
Submandibular blood collection was performed in anesthetized mice. A swift lancing motion is used to puncture the vessel. Blood sample (up to 200 μl) was collected with a pipette or other collection tube, allowed to stand at room temperature for 30 min and centrifuged for 15 min at 3000 rpm. Supernatant serum was aliquot and frozen at −80° C. until use. Mouse serum levels of osteocalcin (a marker for bone formation), PYD (pyridinoline, a marker for bone resorption), and PTH were measured using mouse osteocalcin Elisa kit (QUIDEL Corporation), METRA Serum PYD EIA kit (QUIDEL Corporation, San Diego, CA, USA), and mouse PTH Elisa kit (MyBioSource), respectively, following the manufacturers' instruction.
(In general: ELISA stands for enzyme-linked immunosorbent assay.)

The subject of a further assay is 5×FAD mice. The assay can be described thus: Novel object recognition (NOR). It counts as in vivo, mouse. How it is done:
as §1
Mice (female and male) at the age of ˜5-MO were subjected to behavioral studies. The experimental procedures are described as previously. […] The total arm entries and the number of tri-ads were recorded to quantify the percentage of spontaneous alternation. For novel object recognition (NOR), which tests mouse's memory ability for a novel object, 20 min were recorded to analyze the time to explore the old object vs. the new object of each mouse. […] During test trials, one of the objects was replaced with a new object and mice were free to explore for another 20 min, and the time spent exploring the new object and the old object was recorded. The discrimination index is quantified as the novelty object preference, which is the time spent exploring the new object minus the time exploring the old object over the total exploration time.

In another assay the test system is IBA1+ microglia. The assay can be described thus: Co-immunostaining ThioS/IBA1/LPL, microglial cells. The following applies: 6-MO 5×FAD female mice vs Veh. It counts as in vivo, mouse. As for the experimental part:
as §1
DAPI was used for nucleus staining.

`CC[C@H](C)[C@H](NC(=O)[C@H](CCC(=O)O)NC(=O)[C@H](CO)NC(=O)[C@@H](NC(=O)[C@@H](N)CO)C(C)C)C(=O)N[C@@H](CCC(N)=O)C(=O)N[C@@H](CC(C)C)C(=O)N[C@@H](CCSC)C(=O)N[C@@H](Cc1cnc[nH]1)C(=O)N[C@@H](CC(N)=O)C(=O)N[C@@H](CC(C)C)C(=O)NCC(=O)N[C@@H](CCCCN)C(=O)N[C@@H](Cc1cnc[nH]1)C(=O)N[C@@H](CC(C)C)C(=O)N[C@@H](CC(N)=O)C(=O)N[C@@H](CO)C(=O)N[C@@H](CCSC)C(=O)N[C@@H](CCC(=O)O)C(=O)N[C@@H](CCCN=C(N)N)C(=O)N[C@H](C(=O)N[C@@H](CCC(=O)O)C(=O)N[C@@H](Cc1c[nH]c2ccccc12)C(=O)N[C@@H](CC(C)C)C(=O)N[C@@H](CCCN=C(N)N)C(=O)N[C@@H](CCCCN)C(=O)N[C@@H](CCCCN)C(=O)N[C@@H](CC(C)C)C(=O)N[C@@H](CCC(N)=O)C(=O)N[C@@H](CC(=O)O)C(=O)N[C@H](C(=O)N[C@@H](Cc1cnc[nH]1)C(=O)N[C@@H](CC(N)=O)C(=O)N[C@@H](Cc1ccccc1)C(=O)O)C(C)C)C(C)C` [PTH1-34]: in assay [1], the p-AKT protein level result was “little effect”, the p-CREB protein level entry is on record as “increases p-CREB” and the p-ERK protein level entry was “little effect”. Also, the serum osteocalcin levels entry in the assay with osteocalcin is reported as “increased serum osteocalcin levels more in 5×FAD mice than that in control mice”. The “NOR, recognition of the novel object (discrimination index)” value with 5×FAD mice (5×FAD female mice ~5-MO vs 5×FAD Veh, 50 μg/Kg s.c. intermittent) was “improved recognition of the novel object”. For the same molecule, in the assay on 5×FAD mice (5×FAD male mice ~5-MO vs Veh), the “NOR, cognitive function in novel object recognition” value was “Little to no improvement”. For the same molecule, in the assay with IBA1+ microglia, the “Aβ associated LPL+IBA1+ microglial cells (DAM)” value is reported as “little to no difference”; the “IBA1+ cell density and fluorescence intensity in regions without Aβ plaques” value is on record as “comparable”; the “ThioS+ Aβ plaque associated IBA1 fluorescence” value is “unchanged”. In the assay with IBA1+ microglia (cortex and hippocampus), the “overall IBA1 fluorescence intensity” value is “lower in PTH1-34 treated 5×FAD cortex and hippocampus than that of Veh controls”.
